The source of these data is patent US9884065B2, “Inhibiting activity of senescent cells using a glucocorticoid” (Buck Institute for Research on Aging, priority 2011, dated 2018).

In one test the test system is SASP factor mRNA. Nature of the test: Real-time quantitative PCR of transcripts in HCA2 cells (normalized to tubulin). The class given is cell-based, human. The following applies: 500 nM corticosterone or 100 nM cortisol; for IL-6, IL-8, MMP-3 mRNA levels: senescent X-irradiated HCA2 cells. The text has this: Cells (7,500/well) in 96-well plates were lysed and reverse transcribed using the Cells-To-Ct kit (Ambion).

In the next test the test system is IL-1α. Description: Immunostaining for IL-1α in HCA2 cells. Type of test: cell-based, human. Particulars: senescent cells 7 days after irradiation; 500 nM corticosterone or 100 nM cortisol. As for the experimental part:
(FIG. 14B) mRNA extracted from cells described in (FIG. 14A) was used to quantify transcripts for IL-6 (normalized to tubulin). (FIG. 14C) Pre and Sen (XRA) cells, prepared as described in (FIG. 14A), were immunostained for IL-1α. Sen (XRA) cells were immunostained 7 days after irradiation.
(§1) Cells were cultured in 8-well chamber slides, fixed in 4% formaldehyde (Sigma) for 10 min at 4° C. and permeabilized in PBS-0.5% Triton for 10 min in 4° C.

A further test deals with Sen (XRA) HCA2 cells. Nature of the test: Senescent phenotypes of Sen (XRA) HCA2 cells (SA-Bgal, BrdU labeling, 53BP1 foci). Type of test: cell-based, human. The following applies: 500 nM corticosterone or 100 nM cortisol, 7 days. As for the experimental part:
Conditioned media from presenescent (Pre) and the control and glucocorticoid-treated Sen (XRA) cells were analyzed by ELISA for IL-6. […] The percentage of presenescent (Pre) and Sen (XRA) cells that express SA-Bgal were scored (upper panel). A representative field corresponding to each condition is also shown (bottom panels). […] The percentage of cells with >2 53BP1 nuclear foci was determined using CELL PROFILER software. At least 200 cells were analyzed per condition.
HCA2 human neonatal foreskin, IMR-90 human fetal lung fibroblasts and T47D human breast cancer cells were obtained and cultured in 3% O2 and 10% CO2 as previously described (Coppe et al., 2008, PLoS Biol. 6:2853-2868; Rodier et al., 2009, Nature Cell Biol. 11:973-979; Coppe et al., 2010, PLoS ONE 5:e9188). Cells were induced to senesce by X-irradiation (10 Gy) or lentiviral expression of oncogenic RAS or MAP kinase kinase 6 (MKK6), as described (Coppe et al., 2008, PLoS Biol. 6:2853-2868; Rodier et al., 2009, Nature Cell Biol. 11:973-979; Freund et al., 2011, EMBO J. 30:1536-1548). Pre-senescent and senescent cells had 24-h BrdU labeling indices of >75% and <10% respectively (Rodier et al., 2009, Nature Cell Biol. 11:973-979); <10% and >70% respectively stained positive for senescence-associated beta-galactosidase activity (Dimri et al., 1995, Proc. Natl. Acad. Sci. USA 92:9363-9367) (Biovision senescence detection kit). HEK293FT packaging cells (Invitrogen) were used to generate lentiviruses. Corticosterone, cortisol and RU-486 were obtained from Sigma-Aldrich.

The target of test [1] is T1, glucocorticoid receptor (GR) (Homo sapiens, UniProt P04150).
T1 construct: endogenous in cells; host or cells: HCA2 human fibroblasts
T1 sequence (P04150 1-777): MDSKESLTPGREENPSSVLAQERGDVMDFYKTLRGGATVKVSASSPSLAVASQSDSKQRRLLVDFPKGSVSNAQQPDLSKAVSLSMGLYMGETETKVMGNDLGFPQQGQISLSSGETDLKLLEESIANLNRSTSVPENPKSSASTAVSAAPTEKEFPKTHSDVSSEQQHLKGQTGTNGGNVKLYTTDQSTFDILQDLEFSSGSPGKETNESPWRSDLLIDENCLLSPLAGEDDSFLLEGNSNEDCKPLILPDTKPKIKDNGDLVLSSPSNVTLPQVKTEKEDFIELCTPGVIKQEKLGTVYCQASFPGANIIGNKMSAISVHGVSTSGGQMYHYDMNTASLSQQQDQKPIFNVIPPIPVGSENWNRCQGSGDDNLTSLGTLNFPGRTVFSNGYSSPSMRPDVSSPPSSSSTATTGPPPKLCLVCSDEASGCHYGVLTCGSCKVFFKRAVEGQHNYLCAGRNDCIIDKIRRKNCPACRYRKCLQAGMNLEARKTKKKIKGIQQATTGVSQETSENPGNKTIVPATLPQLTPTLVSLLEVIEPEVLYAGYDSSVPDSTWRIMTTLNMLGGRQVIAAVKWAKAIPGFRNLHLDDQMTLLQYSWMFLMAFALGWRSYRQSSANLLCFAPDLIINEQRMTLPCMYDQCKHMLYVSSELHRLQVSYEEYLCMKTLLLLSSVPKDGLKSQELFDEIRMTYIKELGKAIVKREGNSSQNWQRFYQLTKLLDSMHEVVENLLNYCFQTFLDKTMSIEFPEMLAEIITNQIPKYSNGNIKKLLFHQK
Nature of the test: Immunostaining for GR localization in HCA2 cells. The following applies: senescent HCA2 cells; 500 nM corticosterone or 100 nM cortisol. The class given is cell-based. As for the experimental part:
as §1

The structures appear in SMILES notation.

As to `C[C@]12C[C@H](O)[C@H]3[C@@H](CCC4=CC(=O)CC[C@@]43C)[C@@H]1CC[C@@H]2C(=O)CO` [corticosterone], in the test with SASP factor mRNA, the “GR mRNA levels” value is given as “unaffected by glucocorticoid addition”; the “IκBα mRNA levels” value was “no effect on IκBα mRNA levels”; the “IL-6, IL-8, MMP-3 mRNA levels” value was “strongly reduced”. Also, in the test on IL-1α, the “expression of IL-1α protein (nuclear staining)” value is reported as “suppressed expression of IL-1α protein”. For the same compound, in the test on Sen (XRA) HCA2 cells, the “fraction of cells that expressed SA-Bgal” value was “no effect on the fraction of cells that expressed SA-Bgal”, the “number of persistent DNA damage foci (53BP1)” value was “no effect on the number of persistent DNA damage foci” and the “senescence growth arrest (24 h BrdU labeling index)” value is on record as “maintained their low 24 h BrdU labeling index”. Besides, the GR localization entry in test [1] is listed as “translocated into the nucleus”.
Turning to `C[C@]12CCC(=O)C=C1CC[C@@H]1[C@@H]2[C@@H](O)C[C@@]2(C)[C@H]1CC[C@]2(O)C(=O)CO` [cortisol], in the test with SASP factor mRNA, the “GR mRNA levels” value was “unaffected by glucocorticoid addition”; the “IκBα mRNA levels” value was “no effect on IκBα mRNA levels”; the “IL-6, IL-8, MMP-3 mRNA levels” value is on record as “strongly reduced”. For the same compound, in the test with IL-1α, the “expression of IL-1α protein (nuclear staining)” value was “suppressed expression of IL-1α protein”. Besides, in the test with Sen (XRA) HCA2 cells, the “fraction of cells that expressed SA-Bgal” value is recorded as “no effect on the fraction of cells that expressed SA-Bgal”, the “number of persistent DNA damage foci (53BP1)” value is “no effect on the number of persistent DNA damage foci” and the “senescence growth arrest (24 h BrdU labeling index)” value is listed as “maintained their low 24 h BrdU labeling index”. In addition, in test [1], the GR localization result is listed as “translocated into the nucleus”.
